According to PubChem BioAssay AID1259407 (Chemical Carcinogenesis Research Information System (CCRIS), 2018):
The source made the active and inactive calls. The rule behind the calls is not given here.

Test system: CCRIS mutagenicity, Ames/micronucleus/aberration tests
Assay: CCRIS mutagenicity studies
[1] = Test System: AMES SALMONELLA TYPHIMURIUM, Strain/Indicator: TA98, Metabolic Activation: NONE, Method: PREINCUBATION
[2] = Test System: AMES SALMONELLA TYPHIMURIUM, Strain/Indicator: TA98, Metabolic Activation: NONE, Method: STANDARD PLATE

For `[O-][Br+2]([O-])O`, the mutagenic call (End Point: IN VITRO CHROMOSOMAL ABERRATIONS, Test System: CHL/IU CELLS, Metabolic Activation: NONE) was “active; positive (structural changes)”, the mutagenic call (End Point: IN VITRO MICRONUCLEUS, Test System: CHL/IU CELLS, Metabolic Activation: NONE) was “active; positive” and the mutagenic call (End Point: IN VIVO MICRONUCLEUS, Test System: BONE MARROW POLYCHROMATIC ERYTHROCYTES, Species: MOUSE, Strain/Sex: DDY/MALE, Route: ORAL) was “active; positive”. The mutagenic call (End Point: In vitro chromosomal aberrations, Test System: Chinese hamster lung (CHL) cells, Metabolic Activation: None) was “active; positive (structural changes)”, the mutagenic call (End Point: In vitro micronucleus, Test System: Human TK6 lymphoblastoid cells, Metabolic Activation: None) was “active; positive” and the mutagenic call (End Point: In vivo micronucleus, Test System: Peripheral blood normochromatic erythrocytes, Species: Mouse, Strain/Sex: Tg.AC hemizygous/Female, Route: Dermal) was “active; positive”. For the same compound, the mutagenic call (End Point: In vivo micronucleus, Test System: Peripheral blood normochromatic erythrocytes, Species: Mouse, Strain/Sex: Tg.AC hemizygous/Female, Route: Oral) was “active; positive”, the mutagenic call (End Point: In vivo micronucleus, Test System: Peripheral blood normochromatic erythrocytes, Species: Mouse, Strain/Sex: Tg.AC hemizygous/Male, Route: Dermal) was “active; positive” and the mutagenic call (End Point: In vivo micronucleus, Test System: Peripheral blood normochromatic erythrocytes, Species: Mouse, Strain/Sex: Tg.AC hemizygous/Male, Route: Oral) was “active; positive”. The mutagenic call (End Point: In vivo micronucleus, Test System: Peripheral blood normochromatic erythrocytes, Species: Mouse, Strain/Sex: p53 Haploinsufficient/Female, Route: Oral) was “active; positive”, the mutagenic call (End Point: In vivo micronucleus, Test System: Peripheral blood normochromatic erythrocytes, Species: Mouse, Strain/Sex: p53 Haploinsufficient/Male, Route: Oral) was “active; positive” and the mutagenic call (End Point: In vivo mutagenicity, Test System: Kidney, Species: Rat, Strain/Sex: Big Blue/male, Route: Oral) was “active; positive for mutants and total mutation frequencies and frequency of gc to ta tr”. The mutagenic call (Test System: AMES SALMONELLA TYPHIMURIUM, Strain/Indicator: TA97, Metabolic Activation: HAMSTER, LIVER, S-9, AROCLOR 1254 (10%), Method: PREINCUBATION) was “inactive; negative”, the mutagenic call (Test System: AMES SALMONELLA TYPHIMURIUM, Strain/Indicator: TA97, Metabolic Activation: HAMSTER, LIVER, S-9, AROCLOR 1254 (30%), Method: PREINCUBATION) was “inactive; negative” and the mutagenic call (Test System: AMES SALMONELLA TYPHIMURIUM, Strain/Indicator: TA97, Metabolic Activation: RAT, LIVER, S-9, AROCLOR 1254 (30%), Method: PREINCUBATION) was “inactive; negative”. For the same compound, the mutagenic call (Test System: AMES SALMONELLA TYPHIMURIUM, Strain/Indicator: TA97, Metabolic Activation: RAT, LIVER, S-9, AROCLOR 1254, Method: PREINCUBATION) was “inactive; negative”, the mutagenic call (Test System: AMES SALMONELLA TYPHIMURIUM, Strain/Indicator: TA98, Metabolic Activation: HAMSTER, LIVER, S-9, AROCLOR 1254 (30%), Method: PREINCUBATION) was “inactive; negative” and the mutagenic call [1] was “inactive; negative”. For the same compound, the mutagenic call (Test System: AMES SALMONELLA TYPHIMURIUM, Strain/Indicator: TA98, Metabolic Activation: RAT, LIVER, S-9, AROCLOR 1254 (30%), Method: PREINCUBATION) was “inactive; negative”, the mutagenic call (Test System: AMES SALMONELLA TYPHIMURIUM, Strain/Indicator: TA100, Metabolic Activation: HAMSTER, LIVER, S-9, AROCLOR 1254 (30%), Method: PREINCUBATION) was “inactive; negative” and the mutagenic call (Test System: AMES SALMONELLA TYPHIMURIUM, Strain/Indicator: TA100, Metabolic Activation: NONE, Method: PREINCUBATION) was “inactive; negative”. For the same compound, the mutagenic call (Test System: AMES SALMONELLA TYPHIMURIUM, Strain/Indicator: TA100, Metabolic Activation: RAT, LIVER, S-9, AROCLOR 1254 (30%), Method: PREINCUBATION) was “inactive; negative”, the mutagenic call (Test System: AMES SALMONELLA TYPHIMURIUM, Strain/Indicator: TA102, Metabolic Activation: NONE, Method: PREINCUBATION) was “inactive; negative” and the mutagenic call (Test System: AMES SALMONELLA TYPHIMURIUM, Strain/Indicator: TA102, Metabolic Activation: RAT, LIVER, S-9, AROCLOR 1254, Method: PREINCUBATION) was “inactive; negative”. The mutagenic call (Test System: AMES SALMONELLA TYPHIMURIUM, Strain/Indicator: TA1535, Metabolic Activation: HAMSTER, LIVER, S-9, AROCLOR 1254 (10%), Method: PREINCUBATION) was “active; positive”, the mutagenic call (Test System: AMES SALMONELLA TYPHIMURIUM, Strain/Indicator: TA1535, Metabolic Activation: NONE, Method: PREINCUBATION) was “inactive; negative” and the mutagenic call (Test System: AMES SALMONELLA TYPHIMURIUM, Strain/Indicator: TA1537, Metabolic Activation: HAMSTER, LIVER, S-9, AROCLOR 1254 (10 OR 30%), Method: PREINCUBATION) was “inactive; negative”. For the same compound, the mutagenic call (Test System: AMES SALMONELLA TYPHIMURIUM, Strain/Indicator: TA1537, Metabolic Activation: NONE, Method: PREINCUBATION) was “inactive; negative”, the mutagenic call (Test System: AMES SALMONELLA TYPHIMURIUM, Strain/Indicator: TA1537, Metabolic Activation: RAT, LIVER, S-9, AROCLOR 1254 (10 OR 30%), Method: PREINCUBATION) was “inactive; negative” and the mutagenic call (Test System: CHINESE HAMSTER V-79 CELLS, Strain/Indicator: V-79-UL (HPRT)/6-THIOGUANINE, Metabolic Activation: NONE, Method: SUSPENSION/PLATE) was “active; positive”. For the same compound, the mutagenic call (Test System: Human lymphoblastoid cells, Strain/Indicator: TK6 (HPRT)/6-thioguanine, Metabolic Activation: None, Method: Suspension/Well) was “active; positive”.

With `c1cc2c3c(c1)=C1OC1C=3Cc1cc3ccccc3cc1-2` (configuration not stated) the mutagenic call [2] was “active; positive” and the mutagenic call (Test System: AMES SALMONELLA TYPHIMURIUM, Strain/Indicator: TA98, Metabolic Activation: RAT, LIVER, S-9, AROCLOR 1254, Method: STANDARD PLATE) was “active; positive”.

For `CCCCCCCCCCOC[N+](C)(C)Cc1ccccc1`, the mutagenic call (Test System: BACILLUS SUBTILIS, Strain/Indicator: H17/REC, Metabolic Activation: NONE, Method: STANDARD PLATE) was “inactive; negative” and the mutagenic call (Test System: BACILLUS SUBTILIS, Strain/Indicator: M45, Metabolic Activation: NONE, Method: STANDARD PLATE) was “inactive; negative”.

`Nc1cc([N+](=O)[O-])c(-c2ccccc2)c([N+](=O)[O-])c1` was tested, and the mutagenic call [1] was “inactive; negative” and the mutagenic call (Test System: AMES SALMONELLA TYPHIMURIUM, Strain/Indicator: TA98, Metabolic Activation: RAT, LIVER, S-9, KANECHLOR 500, Method: PREINCUBATION) was “active; positive”.

In the case of `OC[C@H]1O[C@@H](n2cnc3c(NO)ncnc32)[C@H](O)[C@@H]1O`, the mutagenic call [2] is reported as “active; positive”, the mutagenic call (Test System: AMES SALMONELLA TYPHIMURIUM, Strain/Indicator: TA100(TN5-1,8-DNP1011), Metabolic Activation: NONE, Method: STANDARD PLATE) is reported as “active; positive” and the mutagenic call (Test System: AMES SALMONELLA TYPHIMURIUM, Strain/Indicator: TA100(TN5-1,8-DNP1012), Metabolic Activation: NONE, Method: STANDARD PLATE) is reported as “active; positive”. For the same compound, the mutagenic call (Test System: AMES SALMONELLA TYPHIMURIUM, Strain/Indicator: TA100, Metabolic Activation: NONE, Method: STANDARD PLATE) was “active; positive” and the mutagenic call (Test System: AMES SALMONELLA TYPHIMURIUM, Strain/Indicator: TA102, Metabolic Activation: NONE, Method: STANDARD PLATE) was “inactive; negative”.
